Holding throughout (assay type): biochemical
Assay [1] has as its target T1, Btk (Homo sapiens, UniProt Q06187).
T1 construct: purified from insect cells as a full-length construct containing a N-terminal 6×-His tag; 6xHis (N); host or cells: insect cells (baculovirus Sf21 in Method B)
Description: Btk in vitro inhibitory activity (one of Methods A, B, C). The note with it: determined in one of three in vitro assays (Examples 125-127). An outline of the steps:
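Values come from one of three formats: TR-FRET (665/615 nm ratio; Ki(app) converted to IC50 with [ATP]=Km, 0.5 nM Btk), mobility-shift product/sum ratio over 12 concentrations with 4-parameter fit, or radiometric filter binding using His-tagged full-length human Btk (8 nM), 0.2 mg/mL poly-Glu-Tyr, 1 μM ATP, 120 min RT.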

The target in assay [2] is T2, Tec (Homo sapiens, UniProt P42680).
T2 sequence (P42680 1-631): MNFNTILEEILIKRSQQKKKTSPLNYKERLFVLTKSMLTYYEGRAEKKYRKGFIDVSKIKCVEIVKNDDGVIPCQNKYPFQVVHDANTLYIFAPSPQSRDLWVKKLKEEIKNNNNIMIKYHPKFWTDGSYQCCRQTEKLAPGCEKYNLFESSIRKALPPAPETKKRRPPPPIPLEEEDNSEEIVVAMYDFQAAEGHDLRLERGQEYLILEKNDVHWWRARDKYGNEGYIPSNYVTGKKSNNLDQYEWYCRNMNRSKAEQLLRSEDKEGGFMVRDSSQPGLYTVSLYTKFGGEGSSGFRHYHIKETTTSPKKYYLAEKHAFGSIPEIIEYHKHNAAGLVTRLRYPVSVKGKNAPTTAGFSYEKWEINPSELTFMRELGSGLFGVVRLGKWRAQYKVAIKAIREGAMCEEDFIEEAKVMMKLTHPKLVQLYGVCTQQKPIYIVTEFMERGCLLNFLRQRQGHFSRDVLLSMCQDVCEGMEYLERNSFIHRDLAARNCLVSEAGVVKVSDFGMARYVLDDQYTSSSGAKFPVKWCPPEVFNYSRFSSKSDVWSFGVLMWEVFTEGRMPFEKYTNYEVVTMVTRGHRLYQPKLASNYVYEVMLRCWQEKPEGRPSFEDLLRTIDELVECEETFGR
The assay is described as follows: Tec kinase inhibition.

Assay [3] concerns the target EGFR (Homo sapiens, UniProt P00533). The assay is described as follows: EGFR kinase inhibition.
The target of assay [4] is Lck (Homo sapiens, UniProt P06239). Description: Lck kinase inhibition. In short, it runs like this:
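Signal is the ratio of fluorescence at 665 versus 615 nm (excitation 330 nm), read after stopping kinase reactions with EDTA and a one-hour incubation with detection reagents, Eu anti-p-Tyr100 at 2.5 nM and streptavidin-APC at 100 nM. Inhibition reported as IC50 computed from fitted Ki(app), [ATP]=Km.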

Assay [5] has as its target C-src (Homo sapiens, UniProt P12931). Description: C-src kinase inhibition.
Assay [6] has as its target Lyn (Homo sapiens, UniProt P07948). The assay is described as follows: Lyn kinase inhibition.
The target in assay [7] is RET (Homo sapiens, UniProt P07949). The assay is described as follows: RET kinase inhibition.
For assay [8], the target named is BLK (Homo sapiens, UniProt P51451). The assay is described as follows: BLK kinase inhibition.
Assay [9] deals with T3, BMX (Homo sapiens, UniProt P51813).
T3 sequence (P51813 1-675): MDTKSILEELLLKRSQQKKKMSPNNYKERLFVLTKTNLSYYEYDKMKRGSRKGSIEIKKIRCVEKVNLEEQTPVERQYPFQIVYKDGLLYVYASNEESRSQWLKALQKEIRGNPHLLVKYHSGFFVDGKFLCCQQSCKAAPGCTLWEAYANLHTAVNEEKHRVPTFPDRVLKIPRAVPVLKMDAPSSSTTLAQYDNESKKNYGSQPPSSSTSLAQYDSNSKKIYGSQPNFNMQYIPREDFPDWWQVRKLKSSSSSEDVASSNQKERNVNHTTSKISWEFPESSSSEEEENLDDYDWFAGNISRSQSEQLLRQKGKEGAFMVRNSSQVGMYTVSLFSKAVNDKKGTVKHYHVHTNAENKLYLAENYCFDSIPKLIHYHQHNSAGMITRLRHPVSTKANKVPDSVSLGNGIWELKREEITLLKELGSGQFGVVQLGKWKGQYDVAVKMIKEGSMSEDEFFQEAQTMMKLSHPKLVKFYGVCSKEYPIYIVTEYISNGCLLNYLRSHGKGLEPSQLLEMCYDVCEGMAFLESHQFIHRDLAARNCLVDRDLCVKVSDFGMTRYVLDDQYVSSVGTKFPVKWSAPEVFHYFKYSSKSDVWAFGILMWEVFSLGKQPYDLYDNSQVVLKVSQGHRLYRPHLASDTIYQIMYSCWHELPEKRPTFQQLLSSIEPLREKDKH
Description: BMX kinase inhibition.

Assay [10] deals with CSK (Homo sapiens, UniProt P41240). The assay is described as follows: CSK kinase inhibition.

Bounds are passed on as bounds.

IC50 data for 4 molecules are collected here from US9546172B2, “Pyrazolo[3,4-d]pyrimidine and pyrazolo[2,3-d]pyrimidine compounds as kinase inhibitors” (Pharmacyclics LLC, priority 2011, dated 2017).

Sequence of Lck (P06239 whole entry): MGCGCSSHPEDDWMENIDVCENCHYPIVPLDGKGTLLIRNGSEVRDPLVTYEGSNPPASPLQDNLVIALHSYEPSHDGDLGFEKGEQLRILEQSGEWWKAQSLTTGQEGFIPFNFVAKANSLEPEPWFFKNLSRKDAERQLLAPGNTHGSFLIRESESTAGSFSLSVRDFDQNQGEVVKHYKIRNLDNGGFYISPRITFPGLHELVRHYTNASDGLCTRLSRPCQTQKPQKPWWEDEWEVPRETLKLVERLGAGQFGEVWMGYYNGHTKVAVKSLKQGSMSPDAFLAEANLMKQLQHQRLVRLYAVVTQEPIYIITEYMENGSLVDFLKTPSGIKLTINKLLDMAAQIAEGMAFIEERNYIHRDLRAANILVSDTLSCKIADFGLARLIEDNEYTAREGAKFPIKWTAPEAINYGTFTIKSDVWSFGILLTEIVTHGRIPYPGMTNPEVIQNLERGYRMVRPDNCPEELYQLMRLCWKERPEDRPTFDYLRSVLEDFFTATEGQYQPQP
Sequence of Lyn (P07948 whole entry): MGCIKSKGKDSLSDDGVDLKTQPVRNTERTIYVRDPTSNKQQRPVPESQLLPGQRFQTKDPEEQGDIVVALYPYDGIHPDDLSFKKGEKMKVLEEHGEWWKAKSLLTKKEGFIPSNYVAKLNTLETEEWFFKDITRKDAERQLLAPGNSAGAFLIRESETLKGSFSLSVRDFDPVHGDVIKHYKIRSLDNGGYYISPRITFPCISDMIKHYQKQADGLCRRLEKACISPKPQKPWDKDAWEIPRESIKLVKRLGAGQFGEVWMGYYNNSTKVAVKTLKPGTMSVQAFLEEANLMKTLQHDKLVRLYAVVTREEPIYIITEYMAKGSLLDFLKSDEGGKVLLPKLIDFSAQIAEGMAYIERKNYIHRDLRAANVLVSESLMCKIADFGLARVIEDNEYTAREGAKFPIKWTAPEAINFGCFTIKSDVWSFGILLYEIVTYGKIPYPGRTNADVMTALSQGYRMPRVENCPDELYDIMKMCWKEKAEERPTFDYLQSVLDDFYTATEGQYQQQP
Sequence of C-src (P12931 whole entry): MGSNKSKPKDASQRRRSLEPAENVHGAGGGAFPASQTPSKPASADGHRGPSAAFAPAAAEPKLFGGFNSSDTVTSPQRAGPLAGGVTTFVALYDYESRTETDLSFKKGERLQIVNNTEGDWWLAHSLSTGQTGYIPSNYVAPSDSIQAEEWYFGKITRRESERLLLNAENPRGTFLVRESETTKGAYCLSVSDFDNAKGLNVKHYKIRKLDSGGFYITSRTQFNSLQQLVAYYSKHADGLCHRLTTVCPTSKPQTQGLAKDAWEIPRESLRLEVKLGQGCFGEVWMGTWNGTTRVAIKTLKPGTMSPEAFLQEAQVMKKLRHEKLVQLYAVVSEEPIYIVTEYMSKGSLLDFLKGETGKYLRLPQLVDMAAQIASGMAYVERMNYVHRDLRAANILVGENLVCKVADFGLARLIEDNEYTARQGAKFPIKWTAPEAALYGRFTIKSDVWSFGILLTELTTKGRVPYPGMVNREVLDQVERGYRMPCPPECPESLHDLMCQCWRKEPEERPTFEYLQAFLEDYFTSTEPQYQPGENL
T1 sequence (Q06187 whole entry): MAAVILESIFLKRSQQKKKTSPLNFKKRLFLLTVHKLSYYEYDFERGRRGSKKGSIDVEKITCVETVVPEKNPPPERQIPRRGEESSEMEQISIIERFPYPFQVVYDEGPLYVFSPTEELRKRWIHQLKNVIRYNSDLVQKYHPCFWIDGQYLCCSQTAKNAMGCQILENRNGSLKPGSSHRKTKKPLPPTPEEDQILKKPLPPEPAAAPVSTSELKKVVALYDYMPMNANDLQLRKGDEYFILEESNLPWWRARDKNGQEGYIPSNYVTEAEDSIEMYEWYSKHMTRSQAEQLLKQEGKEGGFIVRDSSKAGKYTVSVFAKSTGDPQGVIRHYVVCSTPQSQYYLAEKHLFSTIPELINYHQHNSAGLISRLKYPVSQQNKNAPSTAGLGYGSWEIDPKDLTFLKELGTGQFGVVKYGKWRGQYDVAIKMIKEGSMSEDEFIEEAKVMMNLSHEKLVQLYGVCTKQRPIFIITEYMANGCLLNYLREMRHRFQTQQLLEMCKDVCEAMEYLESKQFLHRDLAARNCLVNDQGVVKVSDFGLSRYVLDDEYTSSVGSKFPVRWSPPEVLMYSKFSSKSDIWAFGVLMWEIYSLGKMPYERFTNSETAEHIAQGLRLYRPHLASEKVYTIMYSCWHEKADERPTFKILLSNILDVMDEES
Sequence of BLK (P51451 whole entry): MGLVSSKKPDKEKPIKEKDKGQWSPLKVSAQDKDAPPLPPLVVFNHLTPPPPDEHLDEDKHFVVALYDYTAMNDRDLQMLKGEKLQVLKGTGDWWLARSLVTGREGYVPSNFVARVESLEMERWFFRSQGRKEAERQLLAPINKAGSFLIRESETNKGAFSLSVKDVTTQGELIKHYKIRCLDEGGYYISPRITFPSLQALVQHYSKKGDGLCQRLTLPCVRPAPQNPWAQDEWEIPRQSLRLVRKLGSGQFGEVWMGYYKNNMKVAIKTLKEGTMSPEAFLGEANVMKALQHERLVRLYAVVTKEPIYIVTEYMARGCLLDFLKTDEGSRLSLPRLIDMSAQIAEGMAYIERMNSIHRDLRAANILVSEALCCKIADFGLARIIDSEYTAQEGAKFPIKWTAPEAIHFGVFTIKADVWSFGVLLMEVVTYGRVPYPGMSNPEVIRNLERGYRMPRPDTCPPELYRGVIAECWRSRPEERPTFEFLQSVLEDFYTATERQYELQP
Sequence of RET (P07949 29-1114): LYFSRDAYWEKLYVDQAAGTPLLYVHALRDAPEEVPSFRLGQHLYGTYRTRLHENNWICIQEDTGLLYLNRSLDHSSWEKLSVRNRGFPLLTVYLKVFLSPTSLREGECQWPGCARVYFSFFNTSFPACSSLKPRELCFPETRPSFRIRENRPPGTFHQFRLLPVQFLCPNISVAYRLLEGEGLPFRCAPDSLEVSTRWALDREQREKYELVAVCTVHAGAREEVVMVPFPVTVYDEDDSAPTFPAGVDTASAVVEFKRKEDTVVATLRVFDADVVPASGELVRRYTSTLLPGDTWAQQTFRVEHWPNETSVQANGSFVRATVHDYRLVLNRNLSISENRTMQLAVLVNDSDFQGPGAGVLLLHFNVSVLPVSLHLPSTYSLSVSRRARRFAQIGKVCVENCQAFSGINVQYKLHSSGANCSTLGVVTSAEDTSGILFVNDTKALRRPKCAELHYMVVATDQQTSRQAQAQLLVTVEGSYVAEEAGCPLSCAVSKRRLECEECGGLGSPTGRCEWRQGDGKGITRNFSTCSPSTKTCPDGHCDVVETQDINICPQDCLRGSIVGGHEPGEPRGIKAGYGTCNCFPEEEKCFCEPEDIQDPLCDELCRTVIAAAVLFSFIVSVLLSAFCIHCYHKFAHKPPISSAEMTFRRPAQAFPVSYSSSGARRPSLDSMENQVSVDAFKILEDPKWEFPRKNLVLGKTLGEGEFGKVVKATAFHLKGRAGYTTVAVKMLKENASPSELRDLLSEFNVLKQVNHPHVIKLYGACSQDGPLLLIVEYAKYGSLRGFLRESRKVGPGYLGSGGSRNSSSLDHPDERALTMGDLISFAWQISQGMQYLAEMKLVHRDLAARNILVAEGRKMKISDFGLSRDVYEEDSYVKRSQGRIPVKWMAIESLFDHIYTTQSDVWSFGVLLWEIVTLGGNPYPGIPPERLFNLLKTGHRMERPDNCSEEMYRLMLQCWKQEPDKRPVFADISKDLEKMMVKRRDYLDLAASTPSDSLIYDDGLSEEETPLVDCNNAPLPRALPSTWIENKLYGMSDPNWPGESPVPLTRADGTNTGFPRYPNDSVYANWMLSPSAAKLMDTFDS
Sequence of CSK (P41240 whole entry): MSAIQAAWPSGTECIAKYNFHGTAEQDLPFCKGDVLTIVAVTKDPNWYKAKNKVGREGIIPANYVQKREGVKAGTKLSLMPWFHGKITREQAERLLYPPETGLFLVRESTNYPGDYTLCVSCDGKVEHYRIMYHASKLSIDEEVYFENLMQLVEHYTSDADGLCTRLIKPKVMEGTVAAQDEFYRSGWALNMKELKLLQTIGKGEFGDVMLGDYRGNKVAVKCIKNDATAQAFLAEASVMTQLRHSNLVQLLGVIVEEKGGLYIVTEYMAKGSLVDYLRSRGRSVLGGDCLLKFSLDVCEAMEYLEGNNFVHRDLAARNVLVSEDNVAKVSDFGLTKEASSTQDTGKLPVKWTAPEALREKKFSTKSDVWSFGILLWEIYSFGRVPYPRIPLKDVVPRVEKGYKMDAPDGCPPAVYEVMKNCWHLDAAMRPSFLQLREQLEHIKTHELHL

Consider `CN(C)C/C=C/C(=O)N(C)c1ccc(-n2nc(-c3ccc(Cl)cc3)c3c(N)ncnc32)cc1` [Example 14, (E)-N-(4-(4-amino-3-(4-chlorophenyl)-1H-pyrazolo[3,4-d]pyrimidin-1-yl)phenyl)-4-(dimethylamino)-N-methylbut-2-enamide], for which the IC50 (commonly the concentration needed to halve the response being measured) in assay [1] is below 100 nM; in assay [2], below 100 nM; in assay [3] it was 100 to 1000 nM; in assay [4], 100 to 1000 nM; in [5], below 100 nM; in assay [6] it was 100 to 1000 nM. In addition, the IC50 in assay [7] is 100 to 1000 nM; in assay [8] it was 100 to 1000 nM; in [9] it was below 100 nM; in assay [10] it was 100 to 1000 nM.

On to `CN(C)C/C=C/C(=O)N(C)c1cccc(-n2nc(-c3ccc(Cl)cc3)c3c(N)ncnc32)c1` [Example 21, (E)-N-(3-(4-amino-3-(4-chlorophenyl)-1H-pyrazolo[3,4-d]pyrimidin-1-yl)phenyl)-4-(dimethylamino)-N-methylbut-2-enamide], for which the IC50 was below 100 nM in assay [1]; below 100 nM in assay [2]; below 100 nM in assay [3]; 100 to 1000 nM in assay [4]; 100 to 1000 nM in assay [5]; above 1000 nM in assay [6]. In addition, the IC50 in assay [7] is above 1000 nM; in assay [8] it was below 100 nM; in [9], below 100 nM; in [10] it was above 1000 nM.

`COc1cc(-c2nn(-c3cccc(N(C)C(=O)/C=C/CN(C)C4CCC4)c3)c3ncnc(N)c23)ccc1C` [Example 23, (E)-N-(3-(4-amino-3-(3-methoxy-4-methylphenyl)-1H-pyrazolo[3,4-d]pyrimidin-1-yl)phenyl)-4-(cyclobutyl(methyl)amino)-N-methylbut-2-enamide]: the IC50 was below 100 nM in assay [1]; below 100 nM in assay [2]; below 100 nM in [3]; 100 to 1000 nM in [4]; below 100 nM in assay [5]; below 100 nM in [6]. The IC50 in assay [7] is above 1000 nM; in assay [8], below 100 nM; in assay [9], below 100 nM; in [10], above 1000 nM.

For `CN(C)C/C=C/C(=O)Nc1cccc(-n2nc(-c3ccc(Cl)cc3)c3c(N)ncnc32)c1` [Example 27, (E)-N-(3-(4-amino-3-(4-chlorophenyl)-1H-pyrazolo[3,4-d]pyrimidin-1-yl)phenyl)-4-(dimethylamino)but-2-enamide], the IC50 was below 100 nM in [1]; below 100 nM in assay [2]; below 100 nM in assay [3]; below 100 nM in [4]; below 100 nM in assay [5]; 100 to 1000 nM in [6]. Also, the IC50 in assay [7] was 100 to 1000 nM; in [8], below 100 nM; in [9], below 100 nM; in assay [10] it was 100 to 1000 nM.
